This assay has as its system P. falciparum 3D7 growth, pLDH absorbance. Nature of the assay: blood-stage malaria parasite growth potency – strain 3D7, dose response (AID 2305).
For `CC[C@H]1CN2CC[C@@H]1C[C@H]2[C@H](O)c1ccnc2ccc(Cl)cc12`, the half-inhibitory concentration (IC50) was found to be 120 nM.
The value for `COc1ccc(CNCc2ccc(F)cc2)cc1-c1ccc(OC)c(S(=O)(=O)NCCN2CCCC2)c1` was 790 nM; that for `CC[C@H]1CN2CC[C@@H]1C[C@H]2[C@H](O)c1cc(N2CCC(C(N)=O)CC2)nc2ccc(OC)cc12` was 770 nM; that for `COc1ccc(N(C)Cc2cnc3nc(N)nc(N)c3n2)cc1` was 280 nM.
To `CN1CCN(c2ccnc3ccc(NC(=O)Cc4ccc(OCc5ccccc5)cc4)cc23)CC1` belongs 630 nM; to `O=C(NCCc1cccc(Cl)c1Cl)c1ccc(N2CCN(c3ccncc3)CC2)nc1`, 1060 nM.
Take `Cc1ccc(Cn2cnc(N3CC(C)NC(C)C3)cc2=O)cc1NC(=O)Nc1ccc(-c2ccccc2)cc1` (centres undefined): the IC50 came out at 850 nM.
On to `Cc1ccc(NCC(=O)Nc2ccc(F)c(Cl)c2)cc1S(=O)(=O)N1CCOCC1`, for which the IC50 amounted to 60 nM. This IC50 lies about 14-fold lower than the previous one.
The compound `COc1nc2c(CCN3CC[C@H](NCc4ccc5c(c4)NC(=O)CO5)[C@H](O)C3)c(Cl)cnc2cc1F` yielded an IC50 of 1020 nM. This IC50 lies about 17-fold higher than the previous one.
`CCC(=Cc1cccc([N+](=O)[O-])c1)C(=O)NCC1CCN(c2nc(N)c3cc(OC)c(OC)cc3n2)CC1` gave an IC50 of 240 nM.
With `Nc1ccncc1C(=O)NCCCCN1CCN(c2nsc3ccccc23)CC1`, the IC50 turned out to be 800 nM. This IC50 lies about 3.3-fold higher than the previous one.
`COc1ccc(NC(=O)[C@H](CC(C)C)Nc2cc(C)nc(NCCc3ccc(F)cc3)n2)cc1` showed an IC50 of 920 nM.
The value for `NC(N)=NN=Cc1ccc2c(ccc3ccccc32)c1` was 630 nM.
The value for `O=C(NC1CCC(CN2CCC(c3c[nH]c4ccccc34)CC2)CC1)[C@H]1Cc2ccccc2CN1` (some centres undefined) was 950 nM; that for `OCCN1CCN(Cc2cccc(-c3ccc(-c4nc5ccc(C(F)(F)F)cc5[nH]4)s3)c2)CC1` was 90 nM.
`N#Cc1cccc(NC(=O)Nc2cccc(-c3cccc(-c4nc5ccc(F)cc5[nH]4)c3)c2)c1` registered a 50% inhibitory concentration (IC50) of 230 nM. This IC50 lies about 2.6-fold higher than the previous one.
On to `O=C(NCc1cccc(OC(F)(F)F)c1)c1cnc2c(c1)nc(-c1cnc(-c3ccccc3)[nH]1)n2CCc1cnc[nH]1`, for which the IC50 stood at 680 nM.
To `Cn1cncc1C(=O)Nc1cccc(-c2ccc(-c3nc4ccc(C(F)(F)F)cc4[nH]3)cc2)c1` belongs 510 nM.
The value for `Cc1cc(N)c2cc(NC(=O)/C=C/c3ccccc3Cl)ccc2n1` was 400 nM.
To `CCCCCCCCn1c2c(c(=N)c3c1CCC3)CCCC2` belongs 110 nM; to `O=C(/C=C/c1ccc(Cl)c(Cl)c1)NCCCCN1CCC(c2c[nH]c3ccccc23)CC1`, 860 nM.
The compound `COc1ccc(NC(=O)c2ccc(NC(=O)c3ccc(Cl)cc3)cc2)cc1N1CCN(C)CC1` returned an IC50 of 850 nM.
In turn, `O=C(Nc1cccc(CN2CCCN(Cc3cccc(O)c3)CC2)c1)c1ccc(Cl)c(Cl)c1` came in with an IC50 of 660 nM.
To `CCn1c(-c2nonc2N)nc2c(-c3ccccc3)ncc(OCCCNCCCN3CCOCC3)c21` belongs 670 nM; to `CN(C)CCOc1ccc(/C(=C(/CCCn2ccnc2)c2ccccc2)c2ccc(O)cc2)cc1`, 770 nM.
As for `c1ccc2c(CNc3nc(NCC4CCCCC4)nc4nc[nH]c34)cccc2c1`, the IC50 was 890 nM. This IC50 and that of the compound before are within 1.5-fold of each other.
To `CCCCNC(=O)[C@H](Cc1ccccc1)NC(=O)c1ccc(O)c(-c2ccc(Cl)c(Cl)c2)c1` belongs 530 nM; to `CCn1c(-c2nonc2N)nc2c(-c3cccc(NC(=O)Nc4cccc(C(F)(F)F)c4)c3)ncc(OCCCN)c21`, 970 nM; to `O=C(NC1CCN(Cc2ccccc2)CC1)c1ccc(-c2nc3cc(Cl)c(F)cc3[nH]2)cc1`, 250 nM.
To `Nc1c2ccccc2nc2cc(C(F)(F)F)ccc12` belongs 840 nM.
Consider `COc1ccc(NC(=O)c2ccc(C=Cc3ccc(C(F)(F)F)cc3)cc2)cc1N1CCN(C)CC1`, for which the IC50 came to 420 nM.
To `COc1ccc2c(=O)c(I)c(C)[nH]c2c1` belongs 440 nM.
The value for `COc1ccc(C(C(=O)NC2CCN(C[C@H](O)c3ccnc4ccc(OC)cc34)CC2)N2CCc3ccccc3C2)cc1` (some centres undefined) was 700 nM.
The value for `Cc1cc(C)c(O)c(-c2cc(C(=O)Nc3ccc(S(=O)(=O)N4CC(C)OC(C)C4)cc3)[nH]n2)c1` (centres undefined) was 660 nM; that for `O=C(c1ccc(Cl)cc1Cl)N1CCCC(C(F)(F)F)C1` (centres undefined) was 950 nM.
Turning to `Cc1ccccc1-c1cc(=O)c2cc(NC(=O)c3cccs3)ccc2o1`, the IC50 came to 220 nM.
The value for `CC(=O)Nc1ccc(C(=O)Nc2cccc(-c3ccc(-c4nc5ccc(C(F)(F)F)cc5[nH]4)s3)c2)cn1` was 130 nM; that for `O=C(NCc1ccccc1S(=O)c1ccccc1CO)C(F)(F)F` (centres undefined) was 180 nM.
On to `Cc1ccccc1CNc1noc(-c2sccc2Br)n1`, for which the IC50 was 380 nM.
The compound `Cc1noc(=O)c2ccc(NC(=O)C(O)(CSc3ccccc3)CC(C)C)cc12` (centres undefined) returned a half-inhibitory concentration (IC50) of 720 nM.
Consider `CN(C)CCNC(=O)c1csc(Nc2ccc(Cl)c(Cl)c2)n1`, for which the IC50 amounted to 220 nM. Against the preceding compound, the IC50 is about 3.3-fold lower.
The value for `CC(C)Nc1nc(NCCc2cnc[nH]2)nc(Nc2ccc(Oc3ccccc3)cc2)n1` was 890 nM; that for `COc1cc(C)nc2ccc(NC(=O)Nc3ccccc3[N+](=O)[O-])cc12` was 840 nM; that for `Cc1ccc(Oc2c(-c3ccccc3CN3CCCC3CN(C)C)cnn(C)c2=O)cn1` (centres undefined) was 1160 nM.
In the case of `CS(=O)(=O)CCNCc1nc(-c2ccc3c(Nc4ccc(F)c(O)c4)ccnc3c2)cs1`, the IC50 was 820 nM.
On to `Nc1nccc2ccc(OC3CCCCC3)cc12`, for which the concentration for half-maximal inhibition (IC50) was determined as 600 nM.
Consider `c1cc(CNCC2CCCO2)cc(-c2csc(-c3nc4ccccc4[nH]3)c2)c1` (centres undefined), for which the IC50 turned out to be 1040 nM.
The value for `O=C(/C=C/c1ccc(Cl)c(Cl)c1)NCCCCCN1CCCN(C(=O)Nc2cccc(Cl)c2)CC1` was 670 nM.
Consider `CCOC(=O)c1ccc(OCCOc2ccccc2)cc1`, for which the IC50 worked out at 370 nM.
Compound `NC(=O)c1ccccc1OCC(=O)Nc1cccc(-c2cccc(-c3nc4ccccc4[nH]3)c2)c1` returned a half-inhibitory concentration (IC50) of 380 nM.
`Fc1ccc2nc(-c3ccc(-c4ccc(CNCc5ccccc5)cc4)cc3)[nH]c2c1` displayed an IC50 of 280 nM.
For the compound `Cc1ccc(S(=O)(=O)N2CCN(C(=O)c3cc(-c4ccccc4)n[nH]3)CC2)cc1`, the IC50 was 600 nM. This IC50 lies about 2.1-fold higher than the previous one.
The value for `CCC1(CC)C(=O)N=C(N2CCCCC2)N(C)C1=O` was 300 nM; that for `CC(CCc1ccccc1)NCC(O)c1ccc2c3c(cccc13)C(=O)N2C` (centres undefined) was 810 nM.
For `COc1ccc(O)c(Cc2cnc3nc(N)[nH]c(=O)c3c2C)c1`, the 50% inhibitory concentration (IC50) was 230 nM.
The value for `CCc1cc(OC)ccc1C1CCN(CCCCNC(=O)c2ccc(NC(=O)c3ccc(Cl)cc3)cc2)CC1` was 1070 nM; that for `O=C(Nc1cccc(-c2csc(-c3ccccc3)n2)c1)c1cccs1` was 800 nM.
`CC(C)(C)OC(=O)NCc1ccc(Nc2nnc(-c3cccc(C(=O)NCCC(c4ccccc4)c4ccccc4)c3)o2)cc1` showed an IC50 of 580 nM.
`CCOc1cc2ncnc(Nc3cc(Cl)c(Cl)c(Cl)c3)c2cc1OCC` yielded an IC50 of 200 nM.
`CN(C)C[C@H](O)[C@@H](c1ccccc1)c1ccc(Cl)cc1` returned an IC50 of 50 nM.
As to `Nc1ncc(-c2ccccc2)cc1-c1cccc2ncccc12`, the IC50 was determined as 270 nM.
To `CCC(C)NS(=O)(=O)c1ccc2nc(Nc3ccc(C)cc3)n(C3CCCCC3C)c2c1` (centres undefined) belongs 590 nM; to `CC[C@H]1CN2CCc3cc(OC)c(OC)cc3[C@@H]2C[C@@H]1C[C@H]1NCCc2c1cc(OC)c(O)c2I`, 220 nM.
The value for `COc1ccc(C(F)(F)F)cc1N1CCN(CCCCNC(=O)c2ccc(NC(=O)c3ccc(Cl)cc3)cc2)CC1` was 910 nM; that for `CC(C)c1ccc(NC(=O)c2ccc(C(=O)NCC3CCN(CC4CCCCC4)CC3)cc2)cc1` was 900 nM; that for `CNC(=O)c1cnc(Nc2ccc3[nH]c(=O)[nH]c3c2)nc1Nc1cccc(OC(C)C)c1` was 930 nM.
In turn, `COc1ccc2c(c1)Nc1ccc(Cl)cc1C2N` (centres undefined) yielded an IC50 of 300 nM.
`CC1(C)C(N(O)C(=O)Nc2ccc(Cl)c(Cl)c2)N(c2ccc(Cl)c(Cl)c2)C(=O)N1CCc1ccccc1` (centres undefined) showed an IC50 of 820 nM.
To `CCn1c(Sc2ccc(C#N)c([N+](=O)[O-])c2)nnc1-c1ccc(Cl)cc1` belongs 550 nM; to `COc1cc(C)c(C(O)CNC(C)CCc2ccccc2)cc1C` (centres undefined), 730 nM.
The value for `COc1ccccc1NC(=O)Nc1cccc(-c2cccc(-c3nc4ccc(C(F)(F)F)cc4[nH]3)c2)c1` was 120 nM.
The value for `COc1ccc(C(=O)NCc2ccccc2-c2ccc(C(C)(C)C)cc2)cc1O` was 100 nM; that for `O=C(Nc1cccc(-c2csc(-c3nc4ccccc4[nH]3)c2)c1)c1cccnc1` was 230 nM.
In turn, `CN(C)CCOc1ccc(-c2cc(-c3ccc(Cl)c(O)c3)c(-c3ccncc3)[nH]2)cc1` gave an IC50 of 580 nM.
To `OCC1CCN(Cc2ccc(-c3ccc(-c4nc5ccc(C(F)(F)F)cc5[nH]4)s3)cc2)CC1` belongs 480 nM; to `Cc1cccn2c(=O)c3cc(C(=O)NC(C)c4ccccc4)c(=N)n(CCc4ccccc4)c3nc12` (centres undefined), 550 nM; to `O=C(Nc1ccc(C(=O)N2CCN(CCN3CCN(c4cccc(C(F)(F)F)c4)CC3)CC2)cc1)c1cc(Cl)cc(Cl)c1`, 830 nM.
To `C=CCN1C(=O)C(=Cc2cc(Br)ccc2O)SC1=Nc1ccccc1` belongs 900 nM; to `Cc1cc(N[C@@H](CC(C)C)C(=O)NCCc2ccccc2)nc(NCC2CCCCC2)n1`, 900 nM.
To `COC(=O)Cn1c(C2CCN(CC3CCC(NC(=O)/C=C/c4ccc(Cl)c(Cl)c4)CC3)CC2)nc2ccccc21` (centres undefined) belongs 1140 nM.
Regarding `C=CCc1cc(Br)ccc1OCCCOc1c(N)nc(N)nc1N`, the IC50 worked out at 190 nM.
The value for `COc1ccc(OC)c(C=CC(=O)NC2CCC(CN3CCC(c4c[nH]c5ccccc45)CC3)CC2)c1` (centres undefined) was 650 nM; that for `CN(C)CCNCc1cccc(-c2ccc3c(Nc4ccc(Oc5ccccc5)cc4)ccnc3c2)c1` was 440 nM; that for `CCCc1cc(Cc2cnc(N)nc2N)c2cccnc2c1OC` was 670 nM.
In turn, `CN(C)c1ccc(CN2CCCC(CNC(=O)c3ccc(-c4cccc(C(F)(F)F)c4)s3)C2)cc1` (centres undefined) showed an IC50 of 1200 nM.
In the case of `Cc1cccc2[nH]c(-c3cccc(-c4cccc(CN5CCCC5CN)c4)c3)nc12` (centres undefined), the IC50 was 770 nM.
To `O=C(NCc1ccccc1)NC1CCN(c2ccnc3cc(Cl)ccc23)C1` (centres undefined) belongs 160 nM; to `Nc1nc(F)nc2nc[nH]c12`, 430 nM.
To `CCOc1cc2ncnc(Nc3ccc(OCc4ccccc4Br)c(OC)c3)c2cc1OCC` belongs 470 nM.

What is called IC50 is the concentration at which inhibition is half-maximal. Low values mean greater potency in that assay, high ones weaker potency in that assay.

The record behind these values is PubChem BioAssay AID2305 (GlaxoSmithKline (GSK), 2010).
